Measured values published in article PMC9848300, “Discovery of novel enasidenib analogues targeting inhibition of mutant isocitrate dehydrogenase 2 as antileukaemic agents” (Journal of Enzyme Inhibition and Medicinal Chemistry, 2023).
Like-named read-outs stand apart in the source and are kept apart here.

What was measured:
CCRF-CEM = experiment: NCI 60 antitumor screening (single dose / five doses); type: cell-based; conditions: Homo sapiens; for inhibition at 10 µM: CCRF-CEM (leukaemia), single dose 10 μM, read-out: Growth inhibition percentage (GI %)
HL-60(TB) = experiment: as above; type: cell-based; conditions: Homo sapiens; for inhibition at 10 µM: HL-60(TB) (leukaemia), single dose 10 μM, read-out: Growth inhibition percentage (GI %)
K-562 = experiment: as above; type: cell-based; conditions: Homo sapiens, K562; for inhibition at 10 µM: K-562 (leukaemia), single dose 10 μM, read-out: Growth inhibition percentage (GI %)
MOLT-4 = experiment: as above; type: cell-based; conditions: Homo sapiens; for inhibition at 10 µM: MOLT-4 (leukaemia), single dose 10 μM, read-out: Growth inhibition percentage (GI %)
EKVX = experiment: as above; type: cell-based; conditions: Homo sapiens; EKVX (non-small cell lung cancer), single dose 10 μM; read-out: Growth inhibition percentage (GI %)
COLO 205 = experiment: as above; type: cell-based; conditions: Homo sapiens; for inhibition at 10 µM: COLO 205 (colon cancer), single dose 10 μM, read-out: Growth inhibition percentage (GI %)
HCT-116 = experiment: as above; type: cell-based; conditions: Homo sapiens; for inhibition at 10 µM: HCT-116 (colon cancer), single dose 10 μM, read-out: Growth inhibition percentage (GI %)
HCT-15 = experiment: as above; type: cell-based; conditions: Homo sapiens; for inhibition at 10 µM: HCT-15 (colon cancer), single dose 10 μM, read-out: Growth inhibition percentage (GI %)
HT29 = experiment: as above; type: cell-based, human; conditions: for inhibition at 10 µM: HT-29, HT29 (colon cancer), single dose 10 μM, read-out: Growth inhibition percentage (GI %); for GI50: read-out: GI50
SW-620 = experiment: as above; type: cell-based, human; conditions: for inhibition at 10 µM: SW-620 (colon cancer), single dose 10 μM, read-out: Growth inhibition percentage (GI %); for GI50: read-out: GI50
SF-295 = experiment: as above; type: cell-based; conditions: Homo sapiens; for inhibition at 10 µM: SF-295 (CNS cancer), single dose 10 μM, read-out: Growth inhibition percentage (GI %)
SF-539 = experiment: as above; type: cell-based; conditions: Homo sapiens; for inhibition at 10 µM: SF-539 (CNS cancer), single dose 10 μM, read-out: Growth inhibition percentage (GI %)
SNB-75 = experiment: as above; type: cell-based; conditions: Homo sapiens; for inhibition at 10 µM: SNB-75 (CNS cancer), single dose 10 μM, read-out: Growth inhibition percentage (GI %)
LOX IMVI = experiment: as above; type: cell-based; conditions: Homo sapiens; for inhibition at 10 µM: LOX IMVI (melanoma), single dose 10 μM, read-out: Growth inhibition percentage (GI %)
MALME-3M = experiment: as above; type: cell-based; conditions: Homo sapiens; for inhibition at 10 µM: MALME-3M (melanoma), single dose 10 μM, read-out: Growth inhibition percentage (GI %)
SK-MEL-2 = experiment: as above; type: cell-based; conditions: Homo sapiens; for inhibition at 10 µM: SK-MEL-2 (melanoma), single dose 10 μM, read-out: Growth inhibition percentage (GI %)
SK-MEL-28 = experiment: as above; type: cell-based; conditions: Homo sapiens; SK-MEL-28 (melanoma), single dose 10 μM; read-out: Growth inhibition percentage (GI %)
SK-MEL-5 = experiment: as above; type: cell-based; conditions: Homo sapiens; for inhibition at 10 µM: SK-MEL-5 (melanoma), single dose 10 μM, read-out: Growth inhibition percentage (GI %)
UACC-62 = experiment: as above; type: cell-based; conditions: Homo sapiens; UACC-62 (melanoma), single dose 10 μM; read-out: Growth inhibition percentage (GI %)
IGROV1 = experiment: as above; type: cell-based; conditions: Homo sapiens, IGROV-1; for inhibition at 10 µM: IGROV1 (ovarian cancer), single dose 10 μM, read-out: Growth inhibition percentage (GI %)
NCI/ADR-RES = experiment: as above; type: cell-based; conditions: Homo sapiens; for inhibition at 10 µM: NCI/ADR-RES (ovarian cancer), single dose 10 μM, read-out: Growth inhibition percentage (GI %)
A498 = experiment: as above; type: cell-based; conditions: Homo sapiens
ACHN = experiment: as above; type: cell-based; conditions: Homo sapiens; for inhibition at 10 µM: ACHN (renal cancer), single dose 10 μM, read-out: Growth inhibition percentage (GI %)
SN 12C = experiment: as above; type: cell-based; conditions: Homo sapiens, SN12C; SN 12C (renal cancer), single dose 10 μM; read-out: Growth inhibition percentage (GI %)
UO-31 = experiment: as above; type: cell-based; conditions: Homo sapiens; for inhibition at 10 µM: UO-31 (renal cancer), single dose 10 μM, read-out: Growth inhibition percentage (GI %)
MDA-MB-231/ATCC = experiment: as above; type: cell-based; conditions: Homo sapiens; for inhibition at 10 µM: MDA-MB-231/ATCC (breast cancer), single dose 10 μM, read-out: Growth inhibition percentage (GI %)
T-47D = experiment: as above; type: cell-based; conditions: Homo sapiens, T47D; for inhibition at 10 µM: T-47D (breast cancer), single dose 10 μM, read-out: Growth inhibition percentage (GI %)
MDA-MB-468 = experiment: as above; type: cell-based; conditions: Homo sapiens; for inhibition at 10 µM: MDA-MB-468 (breast cancer), single dose 10 μM, read-out: Growth inhibition percentage (GI %)
[1] = tested on: 60 human subpanel cancer cell lines; experiment: NCI 60 antitumor screening, mean over the panel (single dose); type: cell-based; conditions: mean over 60 cancer cell lines, single dose 10 μM
How it was run: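 NCI-60 one-dose screen. Dose: 10 μM. Lines: 60 human tumour lines, nine tissue types. Output: GI% = 100 − G%.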

Brc1ccccc1/C=N/Nc1nc(N/N=C/c2ccccc2Br)nc(N2CCOCC2)n1 [compound 6b, 2,4-Bis[(E)-2-[(2-bromophenyl)methylidene]hydrazin-1-yl]-6-(morpholin-4-yl)-1,3,5-triazine]
inhibition at 10 µM (CCRF-CEM): 19.9%
inhibition at 10 µM (HL-60(TB)): 19.5%
inhibition at 10 µM (K-562): 5.94%
inhibition at 10 µM (MOLT-4): 27.4%
inhibition at 10 µM (EKVX): 19.8%
inhibition at 10 µM (COLO 205): 13.9%
inhibition at 10 µM (HCT-116): 2.53%
inhibition at 10 µM (HCT-15): 18.9%
inhibition at 10 µM (HT29; Homo sapiens): 26%
inhibition at 10 µM (SW-620; Homo sapiens): 3.31%
inhibition at 10 µM (SF-295): 14.5%
inhibition at 10 µM (SF-539): -4.64%
inhibition at 10 µM (SNB-75): -31.7%
inhibition at 10 µM (LOX IMVI): -2.7%
inhibition at 10 µM (MALME-3M): -42.9%
inhibition at 10 µM (SK-MEL-2): 3.71%
inhibition at 10 µM (SK-MEL-28): 0.72%
inhibition at 10 µM (SK-MEL-5): 30.4%
inhibition at 10 µM (UACC-62): -2.17%
inhibition at 10 µM (IGROV1): 10.3%
inhibition at 10 µM (NCI/ADR-RES): 8.51%
inhibition at 10 µM (A498; A498 (renal cancer), single dose 10 μM, read-out: Growth inhibition percentage (GI %)): 49.8%
inhibition at 10 µM (ACHN): 6.36%
inhibition at 10 µM (SN 12C): 1.16%
inhibition at 10 µM (UO-31): 21.4%
inhibition at 10 µM (MDA-MB-231/ATCC): -3.3%
inhibition at 10 µM (T-47D): 21%
inhibition at 10 µM (MDA-MB-468): 9.74%
Mean GI % [1]: 7.16%

Brc1cccc(/C=N/Nc2nc(N/N=C/c3cccc(Br)c3)nc(N3CCOCC3)n2)c1 [compound 6c, 2,4-Bis[(E)-2-[(3-bromophenyl)methylidene]hydrazin-1-yl]-6-(morpholin-4-yl)-1,3,5-triazine]
inhibition at 10 µM (CCRF-CEM): 79%
GI50 (CCRF-CEM; CCRF-CEM, five doses (0.01–100 μM), read-out: GI50): 0.57 µM
inhibition at 10 µM (HL-60(TB)): 110%
GI50 (HL-60(TB); HL-60(TB), five doses (0.01–100 μM), read-out: GI50): 0.15 µM
inhibition at 10 µM (K-562): 85.5%
GI50 (K-562; K-562, five doses (0.01–100 μM), read-out: GI50): 0.33 µM
inhibition at 10 µM (MOLT-4): 89.8%
GI50 (MOLT-4; MOLT-4, five doses (0.01–100 μM), read-out: GI50): 0.68 µM
inhibition at 10 µM (EKVX): 51%
inhibition at 10 µM (COLO 205): 76.2%
GI50 (COLO 205; COLO 205, five doses (0.01–100 μM), read-out: GI50): 1.24 µM
inhibition at 10 µM (HCT-116): 78.8%
GI50 (HCT-116; HCT-116, five doses (0.01–100 μM), read-out: GI50): 0.78 µM
inhibition at 10 µM (HCT-15): 109%
GI50 (HCT-15; HCT-15, five doses (0.01–100 μM), read-out: GI50): 0.42 µM
GI50 (HT29; HT29, five doses (0.01–100 μM)): 0.61 µM
GI50 (HT29; Homo sapiens, HT-29, HT29, five doses (0.01–100 μM)): 0.6 µM
inhibition at 10 µM (HT29; Homo sapiens): 93.4%
GI50 (SW-620; Homo sapiens, SW-620, SW-620, five doses (0.01–100 μM)): 0.82 µM
inhibition at 10 µM (SW-620; Homo sapiens): 75.3%
GI50 (SW-620; SW-620, five doses (0.01–100 μM)): 0.83 µM
inhibition at 10 µM (SF-295): 70.9%
GI50 (SF-295; SF-295, five doses (0.01–100 μM), read-out: GI50): 4.94 µM
inhibition at 10 µM (SF-539): 43.6%
GI50 (SF-539; SF-539, five doses (0.01–100 μM), read-out: GI50): 3.83 µM
inhibition at 10 µM (SNB-75): -7.5%
GI50 (SNB-75; SNB-75, five doses (0.01–100 μM), read-out: GI50): 4.54 µM
inhibition at 10 µM (LOX IMVI): 94.8%
GI50 (LOX IMVI; LOX IMVI, five doses (0.01–100 μM), read-out: GI50): 2.66 µM
inhibition at 10 µM (MALME-3M): 154%
GI50 (MALME-3M; MALME-3M, five doses (0.01–100 μM), read-out: GI50): 1.88 µM
inhibition at 10 µM (SK-MEL-2): 97.4%
GI50 (SK-MEL-2; SK-MEL-2, five doses (0.01–100 μM)): 2.43 µM
inhibition at 10 µM (SK-MEL-28): 82.9%
inhibition at 10 µM (SK-MEL-5): 79.3%
GI50 (SK-MEL-5; SK-MEL-5, five doses (0.01–100 μM), read-out: GI50): 1.99 µM
inhibition at 10 µM (UACC-62): 44%
inhibition at 10 µM (IGROV1): 57.2%
GI50 (IGROV1; IGROV1, five doses (0.01–100 μM), read-out: GI50): 2.92 µM
inhibition at 10 µM (NCI/ADR-RES): 58.2%
GI50 (NCI/ADR-RES; NCI/ADR-RES, five doses (0.01–100 μM), read-out: GI50): 3.25 µM
GI50 (A498; A498, five doses (0.01–100 μM), read-out: GI50): 0.14 µM
inhibition at 10 µM (ACHN): 73.7%
GI50 (ACHN; ACHN, five doses (0.01–100 μM), read-out: GI50): 2.21 µM
inhibition at 10 µM (SN 12C): 55.8%
inhibition at 10 µM (UO-31): 74.5%
GI50 (UO-31; UO-31, five doses (0.01–100 μM), read-out: GI50): 1.01 µM
GI50 (MDA-MB-231/ATCC; MDA-MB-231/ ATCC, five doses (0.01–100 μM), read-out: GI50): 3.97 µM
inhibition at 10 µM (MDA-MB-231/ATCC): 33.9%
inhibition at 10 µM (T-47D): 43.5%
GI50 (T-47D; T-47D, five doses (0.01–100 μM), read-out: GI50): 3.94 µM
inhibition at 10 µM (MDA-MB-468): 98.9%
GI50 (MDA-MB-468; MDA-MB-468, five doses (0.01–100 μM), read-out: GI50): 1.91 µM
Mean GI % [1]: 66%
